This is an account of results in US10174015B2, “Substituted heterocyclic derivative, preparation method and use thereof” (Xiamen University, priority 2014, dated 2019).

Where two headings read alike, the source gives them in different places.

A short description of series [1]: Stability assay in rat plasma. The format is in vitro ADME. The conditions noted are these: 37° C. How it is done: To each of several tubes sub-packaged with rat plasma, PBS solution was added in a volume equal to a quarter of plasma volume, and the resultant mixture was mixed well. […] At different time points (0, 10, 30, 60, 120, 240, 360, 720, 1440 min), 50 μL plasma sample was taken and added to 150 μL precooled methanol (containing the internal standard compound E8, with a structure of
[drawing 117] and a name of 1-(2-Biphenyl-4-yl)ethyl-carbonyl pyrrolidine, 1 nmol/sample), wherein three parallel samples were prepared for each time point. The samples were then vertically mixed well, and centrifuged at 4° C., 12000 g for 10 min. The supernatant was transferred to a sample vial. LC-MS/MS was used to measure the peak area at different time points, Analyst® version 1.4.1. software was used to analyze chromatographic peak, and the content of the target compound was calculated by virtue of the standard curve.

A short description of series [2]: Stability assays at acidic and basic conditions. The format is physicochemical. How it is done: The sample containing the compound to be tested was then incubated in a constant temperature shaker at 37° C. At different time points (0 min, 10 min, 30 min, 1 h, 2 h, 4 h, 6 h, 12 h, 24 h), 50 μL sample was taken and added to 150 μL precooled methanol (containing the internal standard E8, 1 nmol/sample), wherein three parallel samples were prepared for each time point. The samples were then vertically mixed well, and transferred to a sample vial. LC-MS/MS was used to measure the peak area at different time points, Analyst® version 1.4.1. software was used to analyze chromatographic peak, and the content of the target compound was calculated based on the standard curve.

A short description of series [3]: Assay on drug metabolism in rat. The series is classed as in vivo, SD rats. The conditions noted are these: SD, plasma, iv, 30 mg/Kg via jugular vein. The source says: 50 SD rats (purchased from Shanghai SLAC Laboratory Animal Co., Ltd) were divided into 5 groups randomly, 10 rats per group. After anesthesia with ether, rat was fixed on the operating table on its back, and was shaved at the operative site of neck. After disinfection with 75% alcohol, the neck was cut about 1.5 cm longitudinally, muscle tissues and nervi vascularis surrounding trachea were separated by blunt dissection, and carotid artery was separated by blunt dissection. Ligation was performed at distal end, an artery clamp was used at proximal part, and the distance between them was about 1 cm. A small cut was made with a pair of ophthalmic scissors at proximal part close to the ligated site, and arterial duct was introduced from the small cut to the proximal part, the artery clamp was loosened, the arterial ostium was clamped with smooth forceps, whilst the arterial duct was delivered to heart ventricle. Upon the introduction of the arterial duct into heart ventricle, the blood vessel was ligated. By using the same intubation method for artery, intubation was applied to jugular veins. After intubation, a tubule filled with heparin sodium was drawn out from artery and vein, which passed through the skin under the ear of the rat and drawn out from the dorsal part skin of the neck of the rat, and the tubule was fixed well. The muscles and skin were sutured at the surgical site of the rat, and normal saline containing heparin sodium was injected from time to time via the tubule connecting the artery and the vein to prevent tubule obstruction due to blood coagulation. The rat was placed in a warm and clean cage provided with water and food, waiting for the rat to wake up naturally.
After the rat regained consciousness and acted normally, assay on metabolic stability of compounds was performed in the rat. All the agents to be injected (including compounds to be tested and control drug) were dissolved in a mixed solvent of PEG400:Tween 80:normal saline (at a volume ratio of 5:5:90), at a concentration of 5 mg/mL. The agent was injected slowly at a dose of 30 mg/Kg via the tubule drawn out from the jugular vein. After administration, the time was recorded, and blood was collected from the tubule drawn out from carotid artery at 2, 5, 10, 20, 30, 60, 240, 360, and 720 min, in an amount of 200 μL for each time. The whole blood was placed in commercially available heparin sodium blood-collecting tube (Jiangxi Jingzhi Medical Equipment Co., Ltd.), centrifuged at 1800 g for 15 min. To the supernatant plasma, 150 μL pre-cooled methanol stopping buffer (containing internal standard E8, 1 nmol/sample) was added, vertically mixed well, and then centrifuged at 4° C., 12000 g for 10 min. The supernatant was transferred to a sample vial, the target compound was detected by LC-MS/MS, and the content of the compound was calculated by virtue of standard curve.

Series [4] has as its target hERG potassium channel (Homo sapiens (Human), UniProt Q12809). Briefly: hERG potassium channel automated patch clamp in CHO-hERG cells. How it is done:
CHO-hERG cells (purchased from ATCC) were incubated in a culture flask. When the cell density reached 60˜80%, the culture medium (Glutamax DMEM/F12 medium (Gibco, Shanghai) containing 10% fetal bovine serum) was removed. The cells were washed with 7 mL PBS once, and then digested by adding 3 mL Detachin cell dissociation buffer. After complete digestion, the resultant mixture was neutralized by adding 7 mL culture medium, and centrifuged. The supernatant was removed with a pipette, 5 mL culture medium was added to re-suspend the cells to ensure a cell density of 2˜5×10^6/mL.
Intracellular fluid and extracellular fluid were prepared as described in the following table.
A certain amount of compound was dissolved in […] at the following concentrations, to prepare the stock solution of compound. 2 μL stock solution of compound was added to 998 μL extracellular fluid, and was subjected to 5-fold serial dilution in extracellular fluid containing 0.2% DMSO to get the final concentrates to be tested.
Single cell giga-seal and formation of whole-cell mode were automatically performed by Sophion Qpatch HT fully automated cell patch clamp systems. After obtaining the whole-cell recording mode, the cell was clamped at −80 mV. The cell first underwent pre-voltage of −50 mV for 50 msec, then underwent depolarization stimulation at 20 mV for 5 sec, and then underwent repolarization at −50 mV for 5 sec, and then the voltage return to −80 mv. The cell underwent the stimulation at the voltage every 15 sec, and the data were recorded for 2 min, then extracellular fluid was administered, and then the data were recorded for 2 min. Then, the administration process begun. The concentration of a test compound started from the lowest concentration, each test concentration was administered for 2 min. […] At least three cells were tested for each concentration (n≥3). The experimental data was analyzed by XLFit software.
On the technique in general: The hERG channel carries a current that helps repolarise heart muscle cells.

In series [5] the test system is SNI neuropathic pain. Description: Neuropathic pain mouse model induced by spared nerve injury (SNI). The format is in vivo, C57BL/6 mice. The conditions noted are these: SNI mice, 10 mg/kg intraperitoneal, 1 h and 4 h after administration (FIGS. 1 and 2). How it is done:
(§1) In the Experimental example, compounds to be evaluated or compounds to be tested or test compounds used are the Compounds 1-46 prepared in the Examples according to the invention. In the Experimental example, all the agents for injection, including compounds to be evaluated or compounds to be tested or test compounds, and positive control drug, were dissolved in a mixed solvent of PEG400:Tween 80:normal saline (at a volume ratio of 5:5:90), at a concentration of 5 mg/mL.
Neuropathic pain mouse model induced by spared nerve injury (SNI) is a common animal model for studying neuropathic pain medically. The invention uses the model to evaluate the therapeutic effects of the compounds on neuropathic pain, wherein the model can represent peripheral neuropathic pain including, but not limited to post-herpetic neuralgia, pain caused by diabetic perineuropathy, neurothlipsis and exudation caused by tumor, lumbar surgery failure syndrome, neuropathic pain caused by lumbar disc protrusion, postpartum neuralgia, trigeminal neuralgia, chemotherapy-induced multiple neuropathic pain, post-radiotherapy plexopathy, and radicular neuralgia.
C57BL/6 mice (purchased from Shanghai SLAC Laboratory Animal Co., Ltd) were anesthetized by intraperitoneal injection with pentobarbital sodium (40 mg/kg), and skin from knee joint to gluteal region was subjected to skin preparation and disinfection. After the mice were fixed, the knee joint part was cut about 1 cm longitudinally with bistoury, and muscle tissues were separated by blunt dissection to expose sciatic nerve. The tibial and common peroneal nerve branches of sciatic nerve stem were cut off carefully, and the cut was then stitched up. The mice was placed in a clean observation cage. In the sham-operation group, only sciatic nerve was exposed without cutting the tibial and common peroneal nerve branches. From the day before the experiment to 24 h after the operation, the plantar edges of the mice were stimulated everyday by […] (Ugo Basile Company (Italy), Product ID: 37450), and data was collected automatically to obtain the threshold value of mice to mechanical stimulation. […] The positive control drug gabapentin was administered at a dose of 100 mg/kg. All the agents to be injected were dissolved in a mixed solvent of PEG400:Tween 80:normal saline (at a volume ratio of 5:5:90), at a concentration of 5 mg/mL. By comparing the threshold values (the acting force of when the mouse retracting the paw) at different administration time in different administration groups, the compound was evaluated for its analgesic effect on neuropathic pain.

For series [6], the system named is inflammatory abdominal pain caused by acetic acid. Description: Abdominal inflammatory pain caused by acetic acid. The format is in vivo, Kunming mice. The conditions noted are these: mice, 10 mg/kg i.p. 1 h before acetic acid; indometacin 20 mg/kg (FIG. 4). How it is done:
as §1
Typical model for studying inflammation-induced visceral pain medically was used to evaluate the therapeutic effects of compounds on inflammatory visceral pain. The model can represent general visceral pain including, but not only limited to appendicitis, gastritis, pancreatitis, prostatitis, myocarditis, interstitial cystitis, pain caused by hepatic, gall or kidney stone, irritable bowel syndrome, and chronic pelvic pain syndrome.
Experimental Kunming mice (purchased by Xiamen University Laboratory Animal Center from Shanghai SLAC Laboratory Animal Co., Ltd) were in an experimental environment with free access to food and water for 1 week. The mice were fasted for 24 h before administration. The compound to be evaluated (10 mg/kg) was administered to the mice by intraperitoneal injection at 1 h before administration of acetic acid, wherein the positive control drug indometacin was administered at a dose of 20 mg/kg, and the blank control was normal saline. Acetic acid (50 μL, acetic acid dissolved in normal saline, at a concentration of 5%) was administered to the mice by intraperitoneal injection, and the mice were then placed in the observation cage. A video camera was used to record the behavior of the mice in the following 20 min. Pain-related behavior was analyzed statistically based on torsion times of the mice in said period.

The test system of series [7] is headache caused by nitroglycerin. Briefly: Nitroglycerin-induced headache rat model. The series is classed as in vivo, Wistar rats. The conditions noted are these: rats, 10 mg/kg i.p. 1 h before nitroglycerin (FIG. 5). How it is done: as §1
Nitroglycerin-induced headache rat model was a common model for studying inflammatory pain medically. The model was used in the invention to evaluate the therapeutic effects of the compounds on headache. The model can represent mixed pain including, but not only limited to: migraine, cluster headache, tension headache syndrome, prosopodynia, lumbodynia, shoulder pain, burning mouth syndrome, and complex regional pain syndrome.
Experimental Wistar rats with a body weight of about 250 g for each (purchased from Shanghai SLAC Laboratory Animal Co., Ltd) were in an experimental environment with free access to food and water for 1 week. The rats were fasted for 24 h before administration. The compound to be evaluated (10 mg/kg) was intraperitoneally injected to the rat at 1 h before the administration of nitroglycerin, wherein the positive control drug was indomethacin and the blank control was normal saline. Nitroglycerin (10 mg/kg, nitroglycerin dissolved in normal saline, at a concentration of 5%) was injected at epidermis of the rat neck, and the rats were then placed in the observation cage. A video camera was used to record the behavior of the rats in the following 60 min. Pain-related behavior was analyzed statistically based on the times that the rat scratched its head in said period.

In series [8] the target is N-acylethanolamide hydrolyzing acid amidase (NAAA) (Rattus norvegicus, UniProt Q5KTC7). Description: Endocannabinoid hydrolase activity: NAAA inhibition (17:1 FAE hydrolysis, LC-MS). The series is classed as biochemical.
Experimental: The preparation method was as followed: a plasmid (pCDNA3.1/NAAA or pCDNA3.1/FAAH) carrying a whole NAAA/FAAH gene was constructed, wherein the plasmid carried Cytomegalovirus (CMV) promoter and Neomycin selectable gene; the plasmid was transformed into HEK-293 cell via lipid medium, stable cell lines expressing NAAA/FAAH at a high level were obtained by G418 screening and Western-blot method. HEK-293 recombinant cells were cultured and collected, washed with PBS for 2-3 times, and ultrasonically treated in 20 mM Tris-HCl containing 0.32 M sucrose, then repeatedly frozen and thawed twice, and then centrifuged at 4° C., 800 g for 15 min. The supernatant (i.e., the desired protein) was collected, the protein concentration was determined by BCA method, and the protein was diluted to a concentration of 1 mg/mL, and sub-packaged and stored in a refrigerator at −80° C. for further use.
The reaction was carried out at 37° C. for 10 min. 170 μL buffer (the buffer consisted of 50 mM disodium Hydrogen Phosphate, 0.1% Triton X-100, 3 mM DTT, 150 μL) containing enzymatic hydrolysis substrate (the substrate was a heptadecenoyl ethanolamine containing a double bond and 17 carbon atoms, abbreviated as 17:1 FAE) was further added, wherein the concentration of 17:1 FAE was 5 μM. The reaction was carried out at 37° C. for 30 min, and 200 μL methanol solution containing internal standard (the internal standard was margaric acid, at a concentration of 1 nmol) was then added to stop the reaction. LC-MS was used to determine the yield of the hydrolysate 17:1 FA (i.e., a heptadecenoic acid containing a double bond) of 17:1 FAE, then a graph was plotted with Graphpad Prism 5. Thereby, the IC50 of the test compound on endocannabinoid hydrolase was determined.
Where [9] appears, read: PBS pH 5.0, 37° C., read-out: Half-life pH 5.0.
[10] abbreviates: PBS pH 7.4, 37° C., read-out: Half-life pH 7.4.

N-acylethanolamide hydrolyzing acid amidase (NAAA), sequence (Q5KTC7 34-130 limits assumed): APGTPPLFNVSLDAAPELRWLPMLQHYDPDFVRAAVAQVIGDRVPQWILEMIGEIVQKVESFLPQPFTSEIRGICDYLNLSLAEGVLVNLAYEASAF
N-acylethanolamide hydrolyzing acid amidase (NAAA), sequence (Q5KTC7 131-362 limits assumed): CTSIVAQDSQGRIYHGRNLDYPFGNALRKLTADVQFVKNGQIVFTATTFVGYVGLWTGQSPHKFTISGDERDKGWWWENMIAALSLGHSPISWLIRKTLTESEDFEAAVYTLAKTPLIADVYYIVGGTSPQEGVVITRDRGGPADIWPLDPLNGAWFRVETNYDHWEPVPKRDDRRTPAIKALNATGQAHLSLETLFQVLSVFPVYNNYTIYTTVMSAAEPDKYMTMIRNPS
hERG potassium channel, sequence (Q12809 whole entry): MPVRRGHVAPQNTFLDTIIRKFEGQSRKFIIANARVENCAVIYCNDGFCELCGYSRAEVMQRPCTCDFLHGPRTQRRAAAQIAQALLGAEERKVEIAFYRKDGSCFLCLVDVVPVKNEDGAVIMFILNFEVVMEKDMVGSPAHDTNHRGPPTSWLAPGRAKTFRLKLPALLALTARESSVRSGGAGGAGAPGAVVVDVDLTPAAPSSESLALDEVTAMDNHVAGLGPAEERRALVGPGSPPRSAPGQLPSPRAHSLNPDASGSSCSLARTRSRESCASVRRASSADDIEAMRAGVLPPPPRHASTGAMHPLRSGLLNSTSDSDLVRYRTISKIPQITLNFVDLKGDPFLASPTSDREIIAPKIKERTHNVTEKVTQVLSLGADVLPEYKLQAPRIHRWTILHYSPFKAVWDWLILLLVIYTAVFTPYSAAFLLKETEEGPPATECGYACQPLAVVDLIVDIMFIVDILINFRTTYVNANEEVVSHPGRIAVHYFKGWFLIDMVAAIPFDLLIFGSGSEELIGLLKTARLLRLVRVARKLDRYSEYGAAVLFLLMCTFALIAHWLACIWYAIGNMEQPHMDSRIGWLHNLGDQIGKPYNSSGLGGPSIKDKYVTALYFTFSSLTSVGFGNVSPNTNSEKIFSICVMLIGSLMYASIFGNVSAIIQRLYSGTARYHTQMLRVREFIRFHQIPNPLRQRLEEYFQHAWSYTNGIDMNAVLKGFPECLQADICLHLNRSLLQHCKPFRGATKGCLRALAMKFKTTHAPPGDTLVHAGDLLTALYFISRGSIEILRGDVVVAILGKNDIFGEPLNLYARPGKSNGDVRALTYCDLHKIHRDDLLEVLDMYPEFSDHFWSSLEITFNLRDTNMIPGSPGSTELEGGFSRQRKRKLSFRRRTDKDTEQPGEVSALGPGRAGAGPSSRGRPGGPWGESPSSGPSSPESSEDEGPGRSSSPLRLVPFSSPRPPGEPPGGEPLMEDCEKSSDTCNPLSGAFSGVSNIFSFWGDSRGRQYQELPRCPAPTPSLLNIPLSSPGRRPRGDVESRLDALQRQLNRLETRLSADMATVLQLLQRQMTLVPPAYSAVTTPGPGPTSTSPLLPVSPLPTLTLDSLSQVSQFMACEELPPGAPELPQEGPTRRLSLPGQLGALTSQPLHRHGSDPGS

As usually defined, the half-life is the time in which the quantity being followed falls by half. For `CC(=O)C[C@@H]1COC(=O)N1C(=O)CCCCCc1cccc(C)c1` [Compound 11], the half-life at 2 μM in series [1] is 4.45 h. Besides, the half-life at 1 μM in series [2] (setting [9]) and in series [2] (setting [10]) was greater than 24 h each time. For the same compound, the half-life in series [3] is 3.07 h.

The IC50 is the concentration that inhibits the measured activity by half. A high value points to lower potency. In series [4], `O=C(CCCCCC1CCCNC1)N1CCOC1=O` (centres unmarked) [Compound 34, Piperidin-3-yl-hexanoyl Oxazolidinone] displayed an IC50 greater than 40000 nM.

As for `O=C1OCCN1C(=O)C1CCC(Cc2ccccc2)CC1` (centres unmarked) [Compound 24, 4-Benzylcyclohexanoyl Oxazolidinone], the “effect of inhibiting central neuropathic pain” value in series [5] was “did not exhibit any effect of inhibiting central neuropathic pain”. Also, in series [6], the “effect of inhibiting abdominal inflammatory pain” value was “did not exhibit any effect of inhibiting abdominal inflammatory pain”. Further, the “effect of inhibiting nitroglycerin-induced headache” value in series [7] is “did not exhibit any effect of inhibiting headache in rats”.

In series [8], `Cc1cccc(CCCCCC(=O)N2CCOC2=O)c1` [Compound 32, 3-Methylphenylhexanoyl Oxazolidinone] showed an IC50 of 350 nM.

`O=C(CCCCCc1cccc(F)c1)N1CCOC1=O` [Compound 8, 3-Fluorophenylhexanoyl Oxazolidinone] yielded a half-life at 2 μM in series [1] of 2.75 h. Also, the half-life at 1 μM in series [2] (setting [9]) and in series [2] (setting [10]) was greater than 24 h throughout. Also, in series [3], the half-life came out at 1.55 h.

With `O=C1OCCN1C(=O)c1ccc(Oc2ccccc2)cc1` [Compound 41, 4-Phenoxybenzoyl Oxazolidinone], the midpoint of inhibition in series [8], the IC50, lay at 680 nM. In series [1], this compound returned a half-life at 2 μM of 5.33 h. Also, the half-life at 1 μM in series [2] (setting [9]) and in series [2] (setting [10]) was greater than 24 h in each case. In series [3], this compound showed a half-life of 2.92 h.

Take `N[C@H]1CC(=O)N(C(=O)CCCCCc2ccccc2)C1` [Compound 30]: the “effect of inhibiting central neuropathic pain” value in series [5] was “did not exhibit any effect of inhibiting central neuropathic pain”. In series [6], the “effect of inhibiting abdominal inflammatory pain” value is “did not exhibit any effect of inhibiting abdominal inflammatory pain”. Moreover, the “effect of inhibiting nitroglycerin-induced headache” value in series [7] was “did not exhibit any effect of inhibiting headache in rats”.

Regarding `O=C(CCCCCc1ccc(O)cc1)N1CCOC1=O` [Compound 31, 4-Hydroxyphenylhexanoyl Oxazolidinone], the half-life at 2 μM in series [1] came to 2.2 h. In addition, the half-life at 1 μM in series [2] (setting [9]) and in series [2] (setting [10]) was greater than 24 h each time. Further, the half-life in series [3] was 1.23 h.

For the compound `Cc1ccc(CCCCCC(=O)N2CCOC2=O)cc1` [Compound 33, 4-Methylphenylhexanoyl Oxazolidinone], in series [8], the IC50 was 440 nM.
